Measurements from US20130310347A1, “MULTI-MODALITY MOLECULAR IMAGING HIGH-THROUGHPUT ASSAY FOR IDENTIFYING HEAT SHOCK PROTEIN 90 (HSP90) INHIBITORS” (The Board of Trustees of the Leland Stanford Junior …, priority 2012, published 2013).

Assays:
[1] = tested on: phosphorylated/total Akt and Raf-1; assay: Western blotting of Hsp90 client proteins in multiple cancer cell lines; assay type: cell-based, human; conditions: BT474/MCF-7/SK-Br3, 1975, HT1080, 4-4/HUH7, PC3, 2008, U87MG, HT29
Source text: FIGS. 10A and 10B show the effect of CP9 on the expression of Raf-1, phosphorylated Akt, and total Akt in 1975 lung cancer, BT474 breast cancer and HuH-7 liver cancer as determined by western blotting. α-Tubulin was used as the loading control.
CP9 had no effect on the expression of the Hsp90 client proteins in normal mouse embryonic fibroblasts (MEF) cells (FIG. 10C).

[2] = tested on: normal MEFs; assay: Alamar Blue cell proliferation; assay type: cell-based, mouse
Source text: CP9 had no effect on proliferation of normal MEFs. Since CP9 led to decrease in phosphorylated Akt (FIGS. 5A and 10A-10C), it was expected to inhibit glucose metabolism through relief of inhibition of glycogen synthase kinase […] (Nair & Olanow (2008) J. Biol. Chem. M707238200; Dandekar et al., (2007) J. Nucl. Med. 48: 602-607).

[3] = 18F-FDG uptake in the brains of mice; assay type: in vivo; conditions: CP9 treated mice; P>0.05 vs carrier
Protocol: The ^18F-FDG uptake in the brains of mice using CT images to delineate boundaries was also analyzed. Relative to day 0, the maximum % ID/g of ^18F-FDG uptake was 114±11% in mice treated with carrier and 99±4% in mice treated with CP9. There was no statistical difference between the two groups (P>0.05).

[4] = target: T1, Hsp90α/p23 interactions (Homo sapiens, UniProt P07900); assay: CP9 analogue evaluation, RL/FL imaging in 293Tα-FG cells; assay type: cell-based; conditions: time- and dose-response curves in 293T-FG cells; read-out: IC50 for inhibition of Hsp90α/p23 signals
T1 construct: expressed in transfected cells; also with FL-eGFP reporter (293Tα-FG) and as xenografts in nude mice
Protocol: To improve the efficacy of CP9 in disruption of Hsp90(α/β)/p23 interactions in living mice, a structure-activity relationship (SAR) study was performed using 62 structural analogues (10 μM) with different modifications on CP9, as shown in FIGS. 2A-2G, using the 293T(α/β)-FG stable cells. Their effects on Hsp90(α/β)/p23 interactions and cell proliferation were monitored by sequential RL (FIG. 11A) and FL imaging at 24 h. CP9, PU-H71 and 17-AAG were used as positive controls. The net effect on Hsp90(α/β)/p23 interactions was determined by normalizing RL to that of FL signals and to that of carrier control-treated cells (FIG. 11B).
The IC50 for growth inhibition by A17 was about 2-fold lower than that of CP9 (FIG. 12A).
CP9 (0.3-10 μM), 17-AAG (10 μM) and PU-H71 (5 μM) were used as positive controls in triplicate wells. The efficacy of the analogues in disruption of Hsp90(α/β)/p23 and cell proliferation were monitored by RL imaging (2 h post upon addition of ENDUREN® at 30 μM final concentration) followed by FL imaging (10 mins post addition of D-Luc at 0.225 mg/ml final concentration) using a cooled CCD camera (1 min and 10 sec for RL and FL imaging, respectively). […] The effect of the CP9 analogues on degradation of Hsp90 client proteins in 293T cells were also monitored by western blotting as described above.

[5] = target: T1, Hsp90α/p23 interactions; assay: HTS dose response, 293T cells stably expressing Hsp90α/p23 split RL reporters; assay type: cell-based; conditions: inhibition of bioluminescence signals by 50% vs carrier control; 8 point dose response 0.156-20 μM; 24 h
Protocol: Novel Hsp90 inhibitors using a commercial 30,176 small molecule chemical compound library with unknown targets and molecular mechanisms (FIG. 9B) were also identified. 293T cells stably expressing Hsp90α/p23 or Hsp90β/p23 split RL reporters were treated with each compound at 8.3 μM.
Baseline complemented RL activities were determined 90 mins after addition of 20 μl of ENDUREN® (10 μM final concentration) (Promega, Madison, Wis.) using the Analyst GT (Molecular Device, Sunnyvale, Calif.), with an acquisition time of 0.2 sec per well. Cells were incubated with compounds for 24 h prior to re-determination of complemented RL activities, and normalized to the mean RL activities of untreated cells in columns 1-2. Another small molecule chemical library with 30,176 compounds (SPECS, Wakefield, R.I.) was also used in screening modulators of Hsp90(α/β)/p23 inhibitors (at 8.3 μM, one drug per well for initial screening). For dose response/confirmation assay the compounds were tested in duplicate in an 8 point (0.156-20 μM) dose response assay for RL activities for both Hps90(α/β)/p23 interactions. The effect of each compound on cell proliferation at 20 μM was determined using Cell Titer-Blue assay in duplicate wells. […]

[6] = tested on: Hsp90(α/β)/p23 interactions; assay: BLI of lead compounds in intact 293T cells with split RL reporters; assay type: cell-based, human
Protocol: Bioluminescence signals were quantified and normalized for cell number and that of carrier control treated cells (right). Results were expressed as mean±S.E.M.
To determine the effect of lead compounds on disruption of Hsp90(α/β)/p23 interactions in intact cells, 3.5×10^4 293T cells stably transfected with split RL reporters as described in Chan et al., (2008) Cancer Res. 68: 216-226, were plated in each well in the 96-well black wall plate (Costar, Corning, N.Y.) and allowed to attach for 24 h, prior to treatment with different concentrations of the lead compounds for 24 h. The 10 μg/ml of ENDUREN® (in […] of cell culture medium) was added to each well for 1.5 h and RL activities were determined. BLI signals were normalized to that of cell number for each well (determined by Alamar Blue assay (Invitrogen, Carlsbad, Calif.)), prior to normalization to carrier control-treated cells.

What does the source list for `Cc1cc(NC(=O)CSc2nc(-c3cccs3)cc(C(F)(F)F)n2)no1` [CP9, N-(5-methylisoxazol-3-yl)-2-(4-(thiophen-2-yl)-6-(trifluoromethyl)pyrimidin-2-ylthio)acetamide]?
degradation of phosphorylated/total Akt and Raf-1 [1]: various levels of degradation; proliferation of normal MEFs [2]: no effect; maximum % ID/g of 18F-FDG uptake in brain relative to day 0 [3]: 99±4%; IC50 [4]: 0.45 µM; IC50 [5]: 3.2 µM; selectivity for Hsp90α/p23 BLI signals relative to Hsp90β/p23 interactions ([6]; 293T cells): more selective for inhibition of Hsp90α/p23 BLI signals; bioluminescence signals in 293T cells expressing Hsp90α/p23 and Hsp90β/p23 split RL reporters ([6]; 24 h, normalized for cell number and carrier control): dose-dependent decrease
